In patent publication US6281214A, “Biphenyl derivatives” (Eisai Co., Ltd, priority 1994, dated 2001) one finds Ki data, which are given here for 25 molecules.

Molecules are shown by their SMILES. Like-named read-outs stand apart in the source and are kept apart here. Some results are limits rather than exact numbers.

Holding throughout (design): species or system SD rats
For assay [1], the target named is T1, dopamine D2 receptor (Rattus norvegicus, UniProt P61169).
T1 construct: the receptor fraction prepared from the corpus striatum was molten and suspended; from tissue; host or cells: corpus striatum of SD rats (membrane fraction)
T1 sequence (P61169 whole entry): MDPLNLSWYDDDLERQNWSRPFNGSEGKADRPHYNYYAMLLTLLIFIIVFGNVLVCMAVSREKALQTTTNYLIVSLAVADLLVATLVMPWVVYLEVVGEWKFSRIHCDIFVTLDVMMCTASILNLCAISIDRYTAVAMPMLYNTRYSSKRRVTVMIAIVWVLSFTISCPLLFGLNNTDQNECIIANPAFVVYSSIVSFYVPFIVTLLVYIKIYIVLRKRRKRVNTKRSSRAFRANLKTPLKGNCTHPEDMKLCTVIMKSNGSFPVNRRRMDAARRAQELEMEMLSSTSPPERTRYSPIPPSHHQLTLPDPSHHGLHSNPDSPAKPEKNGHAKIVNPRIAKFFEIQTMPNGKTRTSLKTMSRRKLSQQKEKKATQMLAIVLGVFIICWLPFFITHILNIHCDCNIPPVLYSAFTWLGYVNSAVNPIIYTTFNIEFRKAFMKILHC
Kind of assay: dopamine D2 receptor binding test ([3H] Spiperone Binding Test). To be noted: 1 nM [3H] Spiperone, rat corpus striatum, room temperature, 60 minutes. Summed up:
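Rat (SD, 6–8 weeks) corpus striatum membranes in 50 mM Krebs-Tris pH 7.4 were incubated with 1 nM [3H]spiperone at room temperature for 60 minutes, with nonspecific binding defined by excess spiperone. IC50 came from probit analysis; Ki was derived using radioligand concentration and Scatchard Kd.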

In assay [2] the target is adrenergic α1 receptor. The assay is described as follows: adrenergic α1 receptor binding test ([3H] Prazosin Binding Test). As to conditions: 1 nM [3H] Prazosin, rat cortex, room temperature, 60 minutes. The essentials: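 Rat (SD, 6-8 weeks) cerebral cortex membranes in 50 mM Tris-HCl pH 7.4 incubated with 1 nM [3H]prazosin for 60 min at room temperature; nonspecific binding defined with phentolamine. IC50 by probit method, converted to Ki using radioligand concentration and Scatchard-derived Kd.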

For assay [3], the target named is T2, serotonin S2 receptor (Rattus norvegicus, UniProt P14842).
T2 construct: The receptor fraction prepared from the cortex was molten and suspended; from tissue; host or cells: cerebral cortex of SD rats (membrane fraction)
T2 sequence (P14842 whole entry): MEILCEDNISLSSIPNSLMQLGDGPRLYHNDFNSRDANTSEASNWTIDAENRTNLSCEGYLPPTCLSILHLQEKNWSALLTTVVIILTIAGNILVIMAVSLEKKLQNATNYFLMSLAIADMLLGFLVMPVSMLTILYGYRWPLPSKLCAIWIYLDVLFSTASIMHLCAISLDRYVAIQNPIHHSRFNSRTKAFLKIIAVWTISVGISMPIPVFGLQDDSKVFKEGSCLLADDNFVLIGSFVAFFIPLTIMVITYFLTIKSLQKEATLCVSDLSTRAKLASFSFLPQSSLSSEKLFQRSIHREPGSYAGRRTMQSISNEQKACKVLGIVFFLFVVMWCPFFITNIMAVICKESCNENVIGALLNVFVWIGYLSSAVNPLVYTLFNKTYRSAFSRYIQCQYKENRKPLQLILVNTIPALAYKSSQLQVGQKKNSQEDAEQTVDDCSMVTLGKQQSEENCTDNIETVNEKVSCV
Kind of assay: serotonin S2 receptor binding test ([3H] Ketanserin Binding Test). As to conditions: 1 nM [3H] Ketanserin, rat cortex, 37° C., 15 minutes. Summed up: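 Rat (SD, 6–8 weeks) cortical membranes in 50 mM Tris-HCl pH 7.4 were incubated with 1 nM [3H]ketanserin for 15 min at 37 °C, then filtered and counted. Nonspecific binding was defined with methysergide. IC50 was obtained by probit analysis and converted to Ki using the Scatchard-derived Kd.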

[4] abbreviates: read-out: Ki value, dopamine D2 receptor.

`CCC(F)c1cc(-c2ccccc2)cc(N2CCN(CC)CC2)c1` (stereo not drawn) [Example 129, 1-Ethyl-4-[3-phenyl-5-(1-fluoropropyl)]phenylpiperazine]: the Ki (usually the dissociation constant of the complex between target and ligand, obtained from inhibition or displacement) stood at 1.86 nM in assay [1] (Ki value, dopamine D2 receptor); 39.8 nM in assay [2]; 34.9 nM in assay [3].
The like results for `CCC(=O)c1cc(-c2ccccc2)cc(N2CCN(CC)CC2)c1` [Example 130, 1-Ethyl-4-(3-phenyl-5-propionyl)phenylpiperazine] were, in that order, 29.7 nM, 70.4 nM and 58 nM.
On to `CCC(F)c1cc(N2CCN(CC)CC2)cc(-c2ccccc2C)c1Cl` (stereo not drawn) [Example 131, 1-Ethyl-4-[3-(2-tolyl)-4-chloro-5-(1-fluoropropyl)]phenylpiperazine], for which the Ki was 3.3 nM in assay [1] (setting [4]), above 1000 nM in assay [2] and 20.8 nM in assay [3].
Consider `CCCc1cc(N2CCN(CC)CC2)cc(-c2ccccc2OC)c1OC` [Example 132], for which the inhibition constant Ki is 281 nM in assay [1] (setting [4]), above 1000 nM in assay [2] and 392 nM in assay [3].
The like results for `CCN1CCN(c2cc(-c3ccccc3)c(OC)c(S(=O)(=O)CC)c2)CC1` [Example 133, 1-Ethyl-4-(3-phenyl-4-methoxy-5-ethanesulfonyl)phenylpiperazine] were, in that order, 28.7 nM, above 1000 nM and 9.02 nM.
In the case of `CCN1CCN(c2cc(-c3ccccc3)c(OC)c(S(=O)(=O)N(C)C)c2)CC1` [Example 134, 1-Ethyl-4-(3-phenyl-4-methoxy-5-dimemthylaminosulfonyl)phenylpiperazine], the Ki in assay [1] (setting [4]) was 59.7 nM; in assay [2] it was above 1000 nM; in assay [3] it was 30.3 nM.
The like results for `CCN1CCN(c2cc(-c3ccccc3)c(OC)c(S(=O)(=O)N3CCCC3)c2)CC1` [Example 135, 1-Ethyl-4-[3-phenyl-4-methoxy-5-(1-pyrrolidinylsulfonyl)]phenylpiperazine] were, in that order, 42.1 nM, above 1000 nM and 16 nM.
With `CCN1CCN(c2cc(NS(=O)(=O)CC(F)(F)F)c(Cl)c(-c3ccccc3C)c2)CC1` [Example 136], the Ki in assay [1] (setting [4]) was 14.2 nM; in assay [2] it was 472 nM; in assay [3] it was 89 nM.
The like results for `CCN1CCN(c2cc(NS(=O)(=O)c3ccc(F)cc3)c(Cl)c(-c3ccccc3C)c2)CC1` [Example 137, 1-Ethyl-4-[3-(2-tolyl)-4-chloro-5-(4-fluorophenylsulfonylamino)]phenylpiperazine] were, in that order, 0.64 nM, 312 nM and 144 nM.
The like results for `CCC(O)c1cc(N2CCN(CC)CC2)cc(-c2ccccc2)c1Cl` (stereo not drawn) [Example 138, 1Ethyl-4-[3-phenyl-4-chloro-5-(1-hydroxypropyl)]phenylpiperazine] were, in that order, 2.89 nM, 9.33 nM and 25 nM.
With `CCN1CCN(c2cc(-c3ccccc3)c(Cl)c(S(=O)(=O)CC)c2)CC1` [Example 139, 1Ethyl-4-(3-phenyl-4-chloro-5-ethanesulfonyl)phenylpiperazine], the Ki in assay [1] (setting [4]) stood at 2.34 nM; in assay [2], 68.7 nM; in assay [3] it was 5.38 nM.
Turning to `CCC(=O)c1cc(N2CCN(CC)CC2)cc(-c2ccccc2)c1Cl` [Example 140, 1-Ethyl-4-(3-phenyl-4-chloro-5-propionyl)phenylpiperazine], the values for the inhibition constant (Ki) in assay [1] (setting [4]), in assay [2] and in assay [3] were 2.97 nM, 95.5 nM and 26.2 nM, respectively.
`CCN1CCN(c2cc(-c3ccccc3C)c(Cl)c(S(=O)(=O)N3CCCC3)c2)CC1` [Example 141]: the Ki was 24.9 nM in assay [1] (setting [4]), above 1000 nM in assay [2] and 92.7 nM in assay [3].
The like results for `CCC(F)c1cc(N2CCN(CC)CC2)cc(-c2ccc(F)cc2C)c1Cl` (stereo not drawn) [Example 142, 1-Ethyl-4-{3-[2-(4-fluorotolyl)]-4-chloro-5-(1-fluoropropyl)}phenylpiperazine] were, in that order, 1.77 nM, 653 nM and 20.5 nM.
For `CCC(F)c1cc(N2CCN(CC)CC2)cc(-c2ccccc2OC)c1Cl` (stereo not drawn) [Example 143, 1-Ethyl-4-[3-(2-methoxyphenyl)-4-chloro-5-(1-fluoropropyl)]phenylpiperazine], in that order: 16.9 nM, above 1000 nM and 156 nM.
The like results for `CCC(F)c1cc(N2CCN(CC)CC2)cc(-c2ccc(F)cc2F)c1Cl` (stereo not drawn) [Example 144, 1-Ethyl-4-[3-(2,4-difluorophenyl)-4-chloro-5-(1-fluoropropyl)]phenylpiperazine] were, in that order, 0.81 nM, 67.4 nM and 15.7 nM.
For the molecule `CCC(F)c1cc(N2CCN(CC)CC2)cc(-c2ccccc2COC)c1Cl` (stereo not drawn) [Example 145, 1-Ethyl-4-[3-(2-methoxymethylphenyl)-4-chloro-5-(1-fluoropropyl)]phenylpiperazine], the inhibition constant Ki in assay [1] (setting [4]) was 8.28 nM; in assay [2], above 1000 nM; in assay [3], 72.5 nM.
With `CCN1CCN(c2cc(-c3ccc(F)cc3C)c(Cl)c(S(=O)(=O)NC3CC3)c2)CC1` [Example 146, 1-Ethyl-4-{3-[2(4-fluorotolyl)-]4-chloro-5-cyclopropaneaminosulfonyl}phenylpiperazine], the Ki in assay [1] (setting [4]) amounted to 0.83 nM; in assay [2], 349 nM; in assay [3], 13.2 nM.
For `CCC(C)c1cc(N2CCN(CC)CC2)cc(-c2ccccc2)c1Cl` (stereo not drawn) [Example 147, 1-Ethyl-4-[3-phenyl-4-chloro-5-(1-methylpropyl)]phenylpiperazine], in that order: 0.45 nM, 33.2 nM and 15.1 nM.
Turning to `CCN1CCN(c2cc(-c3ccc(F)cc3C)c(Cl)c(S(=O)(=O)CC3CC3)c2)CC1` [Example 148, 1-Ethyl-4-{3-[2(4-fluorotolyl)]-4-chloro-5-cyclopropylmethylsulfonyl}phenylpiperazine], the Ki is 12.1 nM in assay [1] (setting [4]), 278 nM in assay [2] and 22.4 nM in assay [3].
The like results for `CCN1CCN(c2cc(-c3ccccc3)c(F)c(S(=O)(=O)CC)c2)CC1` [Example 149, 1-Ethyl-4-(3-phenyl-4-fluoro-5-ethanesulfonyl)phenylpiperazine] were, in that order, 6.24 nM, 27.2 nM and 11.6 nM.
As to `CCC(F)c1cc(N2CCN(CCCc3ccncc3)CC2)cc(-c2ccccc2C)c1Cl` (stereo not drawn) [Example 150], the Ki was 7.98 nM in assay [1] (setting [4]), above 1000 nM in assay [2] and 97.1 nM in assay [3].
Take `CCCN1CCN(c2cc(-c3ccccc3C)c(Cl)c(C(F)CC)c2)CC1` (stereo not drawn) [Example 151, 1-Propyl-4-[3-(2-tolyl)-4-chloro-5-(1-fluoropropyl)]phenylpiperazine]: the Ki in assay [1] (setting [4]) is 3.52 nM; in assay [2], above 1000 nM; in assay [3], 27.7 nM.
As for `CCCS(=O)(=O)Nc1cc(N2CCN(CC)CC2)cc(-c2ccccc2C)c1Cl` [Example 153, 1-Ethyl-4-[3-(2-tolyl)-4-chloro-5-propanesulfonylamino]phenylpiperazine], the inhibition constant Ki stood at 1.53 nM in assay [1] (setting [4]), 68.7 nM in assay [2] and 4.19 nM in assay [3].
For the molecule `CCN1CCN(c2cc(-c3ccccc3C)c(Cl)c(S(=O)(=O)N(C)C)c2)CC1` [Example 154, 1-Ethyl-4-[3-(2-tolyl)-4-chloro-5-dimethylaminosulfonyl]phenylpiperazine], the Ki is 2.59 nM in assay [1] (setting [4]), above 1000 nM in assay [2] and 153 nM in assay [3].
